This is an account of results in patent US20250042918A1, “COMPOUNDS” (Fundación Del Sector Públlco Estatal Centro Nacional De …, priority 2021, published 2025).

Assay [1] deals with BAD S112 phosphorylation in H1299 cells overexpressing PIM-1 (H1299Pim1). In words: BAD S112 phosphorylation inhibition assay (in Cell ELISA). The following applies: Homo sapiens, NCI-H1299, 4 hours, medium without FBS, read-out: BAD PH 1299PIM 1 ELIWO. It is filed as cell-based. The procedure:
The efficacy of the compounds of the invention on the inhibition of BAD phosphorylation was measured by an in Cell ELISA.
Materials: H1299 cells overexpressing PIM-1 (H1299Pim1). DMSO Plates: 96-well-Polystyrene, Untreated, Round-Bottom plates from Costar (Cat #3797). Cell Plates: 96-Flat bottom biocoated with Poly-D-Lysin plates with lid from Becton Dickinson (Cat #354651). Cell Culture Medium: DMEM high glucose, 10% Fetal Bovine Serum, 2 mM L-Glutamine, P/S. Antibodies: phospho BAD S112 antibody from Cell Signaling (cat. #9291S), anti-rabbit conjugated with peroxidase from Amersham (cat. #3619). Reagent: SuperSignal ELISA femto from Pierce (cat. #1001110).
Procedure: Cells were seeded in 15000 cells per 200 μl per well into 96-well plates and incubated for 16 h at 37° C., 5% CO2. On day two, nine serial 1:2 compound dilutions were made in DMSO in a 96-well plate. The compounds were added to duplicate wells in 96-well cell plates using a FX BECKMAN robot (Beckman Coulter) and were incubated at 37° C. under CO2 atmosphere in medium without fetal bovine serum (FBS). After 4 hours, relative levels of BAD S112 phosphorylation were measured in Cell ELISA using SuperSignal ELISA Femto substrate (Pierce) and read on VICTOR (Perkin Elmer). EC50 values were calculated using ActivityBase from IDBS.
In general terms: In an ELISA, binding on a coated surface is turned into a signal by an enzyme label.

The next assay relates to OCI-M1. In words: In vitro potency against leukemia cell lines (CellTiter Glo). The format is cell-based. The following applies: 72 hours, read-out: absolute IC50 OCI-M1. The procedure:
(§1) To prepare the complete medium FBS and appropriate additives were added according to the information sheet provided by the vendor and mixed gently. The cell name and complete medium and passage number marked on the flask were checked, and the culture medium removed and discarded using a vacuum pump. […] 3.0 ml of Trypsin-EDTA solution was added to the flask and the cells observed under an inverted microscope until cell layer is dispersed. 8.0 ml of complete growth medium was added and the cells aspirated by gently pipetting. The cell suspension was transferred to a centrifuge tube and centrifuged at 800-1000 rpm for 3-5 minutes. The supernatant was discarded using a vacuum pump, and an appropriate volume of complete medium added. The cell pellet was suspended by gently pipetting, and the cell numbers counted with Vi-cell XR and the cells adjusted to appropriate density. 100 μL of cell suspension to 96-well opaque-walled clear bottom plates was added according to the planned plate layout and the plates placed in the CO2 incubator overnight.
(§2) c. […] Meanwhile the day 0 plate was measured by Cell TiterGlo as listed below.
(§3) d. Cells were incubated with the compounds for 72 h at 5% CO2, 37° C.
(§4) The plate and its contents were equilibrated to room temperature for approximately 30 minutes, after which 100 μL of CellTiter-Glo reagent was added to the assay plate by Multidrop Combi instrument and the contents mixed for 10 minutes on an orbital shaker to induce cell lysis. The plate was allowed to incubate at room temperature for 10 minutes to stabilize luminescent signal and the clear bottom pasted with white back seal and the luminescence recorded with Enspire with the settings: Luminescence, measurement time 0.1 ms.
(§5) In all cases, the incubation time was 72 hours and the cell lines were grown as a suspension. The seeding density was […] in a 96 well plate.
Background: ATP-based viability assays read luminescence as a measure of living cells.

Another assay concerns MV-4-11. The description is as above. The format is cell-based. The conditions noted are these: Homo sapiens, MV4-11; 72 hours; read-out: absolute IC50 MV-4-11. The procedure: as §1, §2, §3, §4, §5
The next assay has as its system Kasumi-3. The description is as above. It is filed as cell-based. The following applies: 72 hours, read-out: absolute IC50 Kasumi-3. Here is the method:
as §1, §2, §3, §4, §5

The test system of another assay is HL-60. Described as above. It is filed as cell-based. The conditions noted are these: Homo sapiens, 72 hours, read-out: absolute IC50 HL-60. Here is the method:
as §1, §2, §3, §4, §5

A further assay deals with Jeko-1. The description is as above. The conditions noted are these: Homo sapiens, 72 hours, read-out: absolute IC50 JeKo-1. It is filed as cell-based. Here is the method:
as §1, §2, §3, §4, §5

For a further assay, the system named is Molm-13. Described as above. The format is cell-based. The following applies: Homo sapiens, 72 hours, read-out: absolute IC50 Molm-13. Here is the method: as §1, §2, §3, §4, §5
A further assay deals with KG-1. The description is as above. It is filed as cell-based. The conditions noted are these: Homo sapiens, 72 hours, read-out: absolute IC50 KG-1. The procedure: as §1, §2, §3, §4, §5
For a further assay, the target named is T1, PIM-2 (Homo sapiens, UniProt Q9P1W9).
T1 construct: made in house
Nature of the assay: Protein PIM kinase assay (ADP Hunter Plus). It is filed as biochemical. The following applies: 100 μM ATP, 100 μM PIMtide. The procedure:
(§6) PIM kinase activities were measured by using the commercial ADP Hunter™ Plus assay (DiscoveRx Ref. #33-016), a homogeneous assay measuring ADP accumulation, as a universal product of kinase activity. PIM-1 and PIM-2 proteins were obtained by purification as it is described by Martinez-Gonzalez et. al. Eur. J. Med Chem. 2019, 168, 87-109 and PIM-3 was acquired from Millipore (Cat #14-738). The assay was done following general manufacturer recommendations and adapting protein and substrates concentrations to optimal conditions. Kinase buffer was 15 mM HEPES, pH 7.4, 20 mM NaCl, 1 mM EGTA, 0.02% Tween-20, 10 mM MgCl2 and 0.1 mg/mL LBGG (bovine y-globulin). All PIM kinases assays were done at 100 μM PIM tide (ARKRRRHPSGPPTA), as peptide substrate, and 100 μM ATP. Protein concentration was 50, 350 and 200 pg/μl for PIM-1, 2 and 3, respectively. In order to calculate the IC50 of described compounds, serial 1:3 dilutions were prepared and the reaction started by addition of ATP. Incubation was done for 1 h at 25° C. Reagents A and B (DiscoveRx) were sequentially added to the wells and plates were incubated for 30 min at 37° C. Fluorescence counts were read in a Victor instrument (Perkin Elmer) with the recommended settings (544 and 580 nm as excitation and emission wavelengths, respectively). Values were plot against inhibitor concentration and fit to a sigmoid dose-response curve using Activity Base software from IDBS.

The next assay has as its target T2, PIM-3 (Homo sapiens, UniProt Q86V86).
T2 construct: purchased Millipore 14-738
In words: Protein PIM kinase assay (ADP Hunter Plus). The format is biochemical. The following applies: 100 μM ATP, 100 μM PIMtide. The procedure: as §6

Another assay has as its target T3, PIM-1 (Homo sapiens, UniProt P11309).
T3 construct: made in house
In words: Protein PIM kinase assay (ADP Hunter Plus). The format is biochemical. The conditions noted are these: 100 μM ATP, 100 μM PIMtide. Here is the method: as §6

T3 sequence (P11309 whole entry): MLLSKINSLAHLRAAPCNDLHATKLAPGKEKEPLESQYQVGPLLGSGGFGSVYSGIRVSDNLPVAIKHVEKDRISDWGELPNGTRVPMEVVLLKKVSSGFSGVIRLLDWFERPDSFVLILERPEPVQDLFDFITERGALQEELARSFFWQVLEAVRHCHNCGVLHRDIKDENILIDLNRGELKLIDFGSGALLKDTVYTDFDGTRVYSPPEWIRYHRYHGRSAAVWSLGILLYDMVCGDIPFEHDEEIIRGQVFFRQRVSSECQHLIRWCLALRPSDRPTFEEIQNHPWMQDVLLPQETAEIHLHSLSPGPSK
T1 sequence (Q9P1W9 whole entry): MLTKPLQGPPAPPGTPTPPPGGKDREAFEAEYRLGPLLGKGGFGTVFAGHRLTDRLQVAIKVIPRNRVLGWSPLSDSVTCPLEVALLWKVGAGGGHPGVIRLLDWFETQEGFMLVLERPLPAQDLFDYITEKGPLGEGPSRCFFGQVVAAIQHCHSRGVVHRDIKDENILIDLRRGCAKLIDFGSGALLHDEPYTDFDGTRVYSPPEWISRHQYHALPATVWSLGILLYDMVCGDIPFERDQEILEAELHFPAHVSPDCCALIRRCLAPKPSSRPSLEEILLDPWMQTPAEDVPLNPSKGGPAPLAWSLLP

Regarding `CN1CCOc2c1c(N[C@H]1CC[C@@](C)(O)CC1)nn1c(-c3cccc(OC(F)(F)F)c3)nnc21` [Example 1, 1-Methyl-4-[6-methyl-3-(3-trifluoromethoxy-phenyl)-7,8-dihydro-6H-9-oxa-1,2,3a,4,6-pentaaza-cyclopenta[a]naphthalen-5-ylamino]-cyclohexanol], in [1], the EC50 is 0.0083 µM. For the same compound, the IC50 (commonly the concentration that inhibits the measured activity by half) was greater than 10 µM with OCI-M1; 0.907 µM in the assay with MV-4-11; 0.232 µM with Kasumi-3; 8.75 µM in the assay on HL-60; 6.54 µM in the assay on Jeko-1; 9.34 µM in the assay on Molm-13. Also, the IC50 in the assay with KG-1 was 0.715 µM; on PIM-2, 0.005 to 0.01 µM; at PIM-3, 0.005 to 0.01 µM; on PIM-1, 0.001 to 0.005 µM.
